Where a name gives a salt, the structure may show the parent alone. Read-outs that look alike come from different tables or passages of the source.
Assays:
HO-1 = HO-1 expression by ELISA in LX-2 cell lysates; type: cell-based, human; conditions: for fold induction at 1 µM / fold induction at 5 µM / fold induction at 10 µM: Homo sapiens, LX-2, 24 h; for fold induction at 1 µM / fold induction at 5 µM / fold induction at 10 µM / Fold Induction (ELISA): 24 h, LX-2 cells lysate, vs control group, mean ± SD of triplicate; for potency as HO-1 inducers relative to DMF: LX-2 cells, more active than DMF
Procedure: (§1) LX 2 cell lines were bought from American Type Culture Collection (Rockville, MD, USA). Upon defrosting, the cells were seeded in 6-well plates and maintained in a medium DMEM low glucose supplemented with 10% FBS and a 1% Penicillin and Streptomycin solution. The obtained cell cultures were left at 37 °C in an incubator with 5% CO2, and the culture medium was changed after 3 or 4 days. Sub-confluent cells were treated over a period of 24 h using various concentrations (1, 5, 10 µM) of compounds 1a–o, 2a–c, and dimethyl fumarate (DMF) previously dissolved in DMSO. Control groups were treated with only DMSO.
The commercially available ELISA kit (ADI-EKS-800, Enzo Life Sci) was used to measure heme oxygenase […] (HO-1) protein concentration in LX2 cellular lysates. The test was performed in agreement with the protocol reported by the manufacturer. Absorbance at λ = 450 nm was measured and the concentration of HO-1 was calculated from a standard curve previously created using purified HO-1 protein. Results were expressed as folds of change compared to the control group. Individual measurement was performed in triplicate and data were reported as averages.

LX-2 cells [1] = test: MTT assay of cell viability; type: cell-based, human
Procedure: as §1
An MTT assay was performed to monitor cell viability, measuring the conversion of tetrazolium salt to yield colored formazan, the amount of which was proportional to the number of living cells. Regarding this assay, LX2 cells were seeded at a concentration of […] cells per well, in a 96-multiwell flat-bottomed 200 μL microplate. The optical density of each well was measured with a microplate spectrophotometer reader (Synergy HT, BioTek) at λ = 570 nm.

LX-2 cells [2] = test: ROS assay with DCFH-DA, palmitic acid (PA)-mediated ROS production; type: cell-based, human; conditions: 24 h; for ROS production mediated by palmitic acid (PA), co-treatment: 5 μM compound + PA 300 μM, p < 0.05 vs. PA
Procedure: Determination of the reactive oxygen species (ROS) was performed using a fluorescent probe 2′,7′-dichlorofluorescein diacetate (DCFH-DA). The fluorescence (corresponding to the oxidized radical species 2′,7′-dichlorofluorescein, DCF) was monitored spectrofluorometrically (excitation, λ = 488 nm; emission, λ = 525 nm). Results were reported as fluorescence intensity. Concerning the experiments, the cells were seeded in 96-well plates at a density of 1 × 10^4 cells per well. Then, the cells were treated for 24 h with DMEM containing a no cytotoxic concentration of palmitic acid (PA) 300 μM in the presence or absence of compound 1b, 1l, 1m and dimethyl fumarate (DMF) (5 μM).

Molecule | fold induction at 1 µM (HO-1; 1 μM) | fold induction at 5 µM (HO-1; 5 μM) | fold induction at 10 µM (HO-1; 10 μM) | IC50 (LX-2 cells [1]; Homo sapiens) [µM] | melting point [°C] | also measured
O=C(/C=C/C(=O)Oc1ccccc1)Oc1ccccc1 [Compound 1a, (2E)-2-Butenedioic acid, 1,4-diphenyl ester] | 6.65 ± 0.15 | 7.93 ± 0.18 | 8.16 ± 0.32 | > 50 | 164 to 165 | –
O=C(/C=C/C(=O)Oc1ccc(Cl)cc1)Oc1ccc(Cl)cc1 [Compound 1b, (2E)-2-Butenedioic acid, 1,4-bis(4-chlorophenyl) ester] | 8.81 ± 0.2 | 8.19 ± 0.21 | 11.7 ± 0.41 | > 50 | 178 to 179 | potency as HO-1 inducers relative to DMF (HO-1): 2–3 fold; ROS production mediated by palmitic acid (PA), co-treatment (LX-2 cells [2]): significantly reversed the effect mediated by PA
O=C(/C=C/C(=O)Oc1ccc(I)cc1)Oc1ccc(I)cc1 [Compound 1c, (2E)-2-Butenedioic acid, 1,4-bis(4-iodophenyl) ester] | 6.02 ± 0.13 | 7.7 ± 0.19 | 8.13 ± 0.23 | 20.8 ± 1.5 | 266 to 267 | –
O=C(/C=C/C(=O)Oc1ccc(C(F)(F)F)cc1)Oc1ccc(C(F)(F)F)cc1 [Compound 1d, (2E)-2-Butenedioic acid, 1,4-bis(4-trifluoromethyphenyl) ester] | – | 1.4 ± 0.03 | 0.68 ± 0.02 | > 50 | 122 to 123 | –
N#Cc1ccc(OC(=O)/C=C/C(=O)Oc2ccc(C#N)cc2)cc1 [Compound 1e, (2E)-2-Butenedioic acid, 1,4-bis(4-cyanophenyl) ester] | 3.68 ± 0.21 | 5.22 ± 0.11 | 6.5 ± 0.17 | > 50 | 230 to 232 | –
Cc1ccc(OC(=O)/C=C/C(=O)Oc2ccc(C)cc2)cc1 [Compound 1f] | 1.82 ± 0.09 | 3.94 ± 0.13 | 3.76 ± 0.15 | > 50 | 160 to 161 | –
COc1ccc(OC(=O)/C=C/C(=O)Oc2ccc(OC)cc2)cc1 [Compound 1g, (2E)-2-Butenedioic acid, 1,4-bis(4-methoxyphenyl) ester] | 0.3 ± 0.01 | 0.76 ± 0.02 | 0.9 ± 0.06 | 22.3 ± 1.8 | 180 to 181 | –
O=C(/C=C/C(=O)Oc1ccccc1C(=O)O)Oc1ccccc1C(=O)O [Compound 1h, (2E)-2-Butenedioic acid, 1,4-bis(2-carboxyphenyl) ester] | 6.37 ± 0.22 | 7.45 ± 0.21 | 9.95 ± 0.19 | > 50 | – | –
O=C(/C=C/C(=O)OCc1ccccc1)OCc1ccccc1 [Compound 1i, (2E)-2-Butenedioic acid, 1,4-bis(phenylmethyl) ester] | 3.4 ± 0.18 | 5.86 ± 0.19 | 7.34 ± 0.28 | 17.7 ± 1.3 | 59 to 61 | –
O=C(/C=C/C(=O)OCCc1ccccc1)OCCc1ccccc1 [Compound 1j, (2E)-2-Butenedioic acid, 1,4-bis(phenylethyl) ester] | 2.29 ± 0.1 | 5.91 ± 0.17 | 8.47 ± 0.33 | > 50 | 77 to 79 | –
O=C(/C=C/C(=O)OCCCc1ccccc1)OCCCc1ccccc1 [Compound 1k, (2E)-2-Butenedioic acid, 1,4-bis(phenylpropyl) ester] | 2.26 ± 0.09 | 5.98 ± 0.16 | 9.55 ± 0.27 | > 50 | – | –
O=C(/C=C/C(=O)Nc1ccccc1)Nc1ccccc1 [Compound 1l, (E)-N, N’-Diphenyl-2-butenediamide] | 6.9 ± 0.14 | 9.74 ± 0.25 | 10.2 ± 0.29 | > 50 | 332 to 333 | potency as HO-1 inducers relative to DMF (HO-1): 2–3 fold; ROS production mediated by palmitic acid (PA), co-treatment (LX-2 cells [2]): significantly reversed the effect mediated by PA
O=C(/C=C/C(=O)NCc1ccccc1)NCc1ccccc1 [Compound 1m, (E)-N, N’-Diphenylmethyl-2-butenediamide] | > 7 | > 14 | 13.8 ± 0.35 | 18.6 ± 1.4 | – | Fold Induction (ELISA) (HO-1; 5 μM, 5 µM): 14.15 ± 0.34 fold; potency as HO-1 inducers relative to DMF (HO-1): 2–3 fold; ROS production mediated by palmitic acid (PA), co-treatment (LX-2 cells [2]): significantly reversed the effect mediated by PA
COC(=O)/C=C/C(=O)Oc1ccccc1 [Compound 2a, (2E)-2-Butenedioic Acid, Methyl Phenyl Ester] | – | – | – | > 50 | 54 to 55 | –
COC(=O)/C=C/C(=O)OCc1ccccc1 [Compound 2b, (2E)-2-Butenedioic acid, methyl phenylmethyl ester] | – | – | 0.28 | > 50 | 50 to 51 | –
COC(=O)/C=C/C(=O)OCCc1ccccc1 [Compound 2c, (2E)-2-Butenedioic acid, methyl phenylethyl ester] | – | – | – | > 50 | 44 to 45 | –
COC(=O)/C=C/C(=O)OC [DMF, dimethyl fumarate] | 2.78 ± 0.09 | 7.63 ± 0.31 | 8.3 ± 0.23 | > 50 | – | ROS production mediated by palmitic acid (PA), co-treatment (LX-2 cells [2]): significantly reversed the effect mediated by PA
CCCCCCCCCCCCCCCC(=O)O [PA, palmitic acid, reference compound] | – | – | – | – | – | ROS production, PA alone (LX-2 cells [2]; PA 300 μM, p < 0.05 vs. control): increased ROS production
(E)-N, N’-Diphenylethyl-2-butenediamide [Compound 1n] | – | – | – | – | – | Fold Induction (ELISA) (HO-1; 1 μM): 5.82 ± 0.12 fold; Fold Induction (ELISA) (HO-1; 5 μM): 7.52 ± 0.21 fold; Fold Induction (ELISA) (HO-1; 10 μM): 8.40 ± 0.38 fold; IC50 (LX-2 cells [1]): > 50 µM
(E)-N, N’-Diphenylpropyl-2-butenediamide [Compound 1o] | – | – | – | – | – | Fold Induction (ELISA) (HO-1; 1 μM): 4.85 ± 0.13 fold; Fold Induction (ELISA) (HO-1; 5 μM): 6.93 ± 0.23 fold; Fold Induction (ELISA) (HO-1; 10 μM): 6.30 ± 0.21 fold; IC50 (LX-2 cells [1]): > 50 µM

Source: PMC7765375, “Novel Heme Oxygenase-1 (HO-1) Inducers Based on Dimethyl Fumarate Structure” (International Journal of Molecular Sciences, 2020)
